The values below come from patent publication US20030023104A1, “Therapeutic compound - fatty acid conjugates” (COMMONWEALTH SCIENTIFIC AND INDUSTRIAL RESEARCH ORGANISATION, priority 1995, published 2003).

The test system of series [1] is UVB induced oedema. As to the kind of experiment: UVB erythema assay (net skin fold thickness). Type of series: in vivo, Skh-1 hairless albino female mice.
Series [2] has as its system reserpine-induced catatonia. The series can be described thus: Anti-reserpine activity (reserpine-induced catatonia). The conditions noted are these: for Response at 15 min.: individual mice 1 and 2. As for the experimental part: The biological activities of L-DOPA and L-DOPA-GTP2 were tested in an animal model of Parkinsons' disease, a condition caused by low levels of the neurotransmitter dopamine in the brain. Mice were pretreated with reserpine which depletes dopamine and causes animals to become catatonic. The ability of L-DOPA and L-DOPA-GTP2 to reverse this condition was measured.
Mice were injected intraperitoneally (ip) with reserpine (5 mg/kg) and 4 hours later tested for catatonia. A mouse was judged to be catatonic if it was able to stay on a stopper of 4.5 cm diameter for 5 minutes. Catatonic animals were then injected ip with L-DOPA or L-DOPA-GTP2 suspended in Miglyol (200-400 μl/mouse) immediately before use and observed.

The test system of series [3] is B16 melanoma cells. The series can be described thus: Tumour Cytotoxicity Model (B16 melanoma in C57 mice). In kind it is in vivo, C57 black mice. Set-up: Mean (standard error) of B16 tumour volume adjusted for the variation in initial volume: scale not given here. To be noted: for difference in tumour volume from the Vehicle group (95% level): 0.5 mg and 1.0 mg groups; for Mean (standard error) of B16 tumour volume adjusted for the variation in initial volume: statistically modified tumour volume; for B16 Tumour Volume: individual mice. As for the experimental part:
Groups of C57 black mice were given an initiation dose of 2×10^5 B16 melanoma cells as an intradermal injection. The cells were suspended in MEM without serum. The abdomen was clipped and 100 μl of cells + MEM was injected. […] The tumours were measured with a micrometer and photographed just prior to the injection of drug (day 8-10).
The cytotoxic drugs and their fatty acid conjugates were dissolved or suspended in 4:1 soy bean oil:ethyl oleate. A 10 mg/ml or a 20 mg/ml solution of each parent drug or the fatty acid conjugate made to the same molar concentration as the parent drug was then injected into the same region as the tumour at a dose of 0.5 mg or 1 mg. The tumours were then photographed, measured and re-injected every two to three days.

Series [4] concerns pain response on heated plate. The conditions noted are these: for mean time response: standard error of each mean ±2.86.
Method: The biological activities of Morphine (Mo) and fatty acid conjugates were tested in an antinociceptive assay using mice. Various doses and duration of pain-killing effect of the drugs were examined.
Quackenbush Strain mice (male, 5-week-old, approximately 30 g live weight) were used for the experiments. Animals were given free access to food and water prior to and during the experiment. Animals were divided into groups of 12 and individually weighed. The mean weight for each group was calculated. Mice were then placed on a metal block heated to 50° C. and the time taken for the animals to show signs of discomfort was measured (baseline response: control). Mice were then injected intraperitoneally (ip) with various doses of Morphine or Morphine-fatty acid conjugate. Morphine was made up in a H2O solution and Morphine-fatty acids were made up in an emulsion containing 10% glycerylmonooleate, 21% Miglyol, 6% ethanol, 24% Tween 80 (33%) and 39% H2O. 0.2 ml of appropriate solution was injected ip into each mouse. At different times after injection, responses on the heated plate were measured. In each experiment 3 doses of Morphine and Morphine-fatty acid and 2 time points were tested. A single mouse was used for each treatment and the entire experiment repeated at least 3 times. […] Members of the panel were asked to score mice behaviour according to the following key:
0=agitated mouse, distressed
1=showing mild discomfort
2=not agitated or uncomfortable but still alert
3=placid. docile; not at all worried.
Results from the panel were averaged.
Setting [5] is: DOPA moiety 364 mg/kg ip, 20 min.
Setting [6] is: DOPA moiety 637 mg/kg ip, 20 min.

Values joined by “and” are separate entries in the source; they are usually repeats but may differ in a detail not shown here. Equal entries are not always repeated. Where two headings read alike, the source gives them in different places.

As to `CCCCCCCCCCCCCCCC(=O)OCC(COC(=O)CCCCCCCCCCCCCCC)(COC(=O)CCCCCCCCCCCCCCC)NC(=O)CNC(=O)CCC(=O)OCC(=O)C1(O)CCC2C3CCC4=CC(=O)CCC4(C)C3C(O)CC21C` (stereo not drawn) [HC-Suc-GTP3, Hydrocortisone-Suc-Gly-Tris-Tripalmitate], the “Mean Net Skin Fold Thickness” value in series [1] (0.5 mg/mouse topical in ethanol, applied Day −5 (5 days prior to UV exposure), 2MED UVB, measured 24 h) is recorded as 93.8 ± 9.8 10^−2 mm; in series [1] (0.5 mg/mouse topical, applied Day 0 after UV exposure, 2MED UVB), 55.8 ± 11.7 10^−2 mm; in series [1] (0.5 mg/mouse topical, applied Day −3 (3 days prior to UV exposure), 2MED UVB), 86.7 ± 9.4 10^−2 mm; in series [1] (1 mg/mouse (1% w/v) topical, applied Day 0 after UV exposure) it was 27.9 ± 7.5; in series [1] (1 mg/mouse (1% w/v) topical, applied Day −3) it was 62.9 ± 4.0; in series [1] (1 mg/mouse (1% w/v) topical, applied Day −5), 103.8 ± 3.0. For the same compound, the “activity equivalent to % of the hydrocortisone activity in protecting against UVB induced oedema” value in series [1] (0.5 mg/mouse, applied at Day 0, post UVB exposure) is “approximately 50%”.

As for `N[C@@H](Cc1ccc(O)c(O)c1)C(=O)O` [L-DOPA, 3-(3,4-dihydroxyphenyl)-alanine, reference compound], the “Anti-Reserpine Activity (response)” value in series [2] (setting [5]) and in series [2] (setting [6]) was “+” throughout. Besides, the “Response at 15 min.” value in series [2] (L-DOPA moiety 9.1 mg/kg ip) was “−”; in series [2] (L-DOPA moiety 91 mg/kg ip), “− and +”; in series [2] (L-DOPA moiety 364 mg/kg ip) it was “+”; in series [2] (L-DOPA moiety 637 mg/kg ip), “+”; in series [2] (L-DOPA moiety 910 mg/kg ip), “+”. Also, the “doses at which all catatonic animals became active” value in series [2] (ip, Experiment 1) is not below 364 mg/kg. Besides, the “toxic effects observed in treated catatonic mice” value in series [2] (mouse, in vivo, ip) was “toxic effects of L-DOPA such as rearing, salivating and jumping”.

In the case of `CCCCCCCCCCCCCCCC(=O)OCC(CO)(COC(=O)CCCCCCCCCCCCCCC)NC(=O)CNC(=O)[C@@H](N)Cc1ccc(O)c(O)c1` [L-DOPA-GTP2, DOPA-Gly-Tris-Dipalmitate], the “time after administration at which signs of recovery showed” value in series [2] (364 mg DOPA/kg ip) was 7 h; in series [2] (637 mg DOPA/kg ip) it was 5 h. In series [2] (9.1 and 91 mg DOPA/kg ip), the “recovery from catatonia at low doses” value is given as “did not recover”. Moreover, the “Anti-Reserpine Activity (response)” value is “− −” in series [2] (DOPA moiety 9.1 mg/kg ip, 20 min); “− −” in series [2] (DOPA moiety 9.1 mg/kg ip, 2 hr); “− −” in series [2] (DOPA moiety 9.1 mg/kg ip, 5 hr); “− −” in series [2] (DOPA moiety 9.1 mg/kg ip, 6 hr); “− −” in series [2] (DOPA moiety 9.1 mg/kg ip, 7 hr); “− −” in series [2] (DOPA moiety 9.1 mg/kg ip, 8 hr). In addition, the “Anti-Reserpine Activity (response)” value in series [2] (DOPA moiety 91 mg/kg ip, 20 min) is listed as “− −”; in series [2] (DOPA moiety 91 mg/kg ip, 2 hr), “− −”; in series [2] (DOPA moiety 91 mg/kg ip, 5 hr), “− −”; in series [2] (DOPA moiety 91 mg/kg ip, 6 hr) it was “− −”; in series [2] (DOPA moiety 91 mg/kg ip, 7 hr), “− −”; in series [2] (DOPA moiety 91 mg/kg ip, 8 hr), “− −”. Also, the “Anti-Reserpine Activity (response)” value in series [2] (setting [5]) is “− −”; in series [2] (DOPA moiety 364 mg/kg ip, 2 hr), “− −”; in series [2] (DOPA moiety 364 mg/kg ip, 5 hr) it was “− −”; in series [2] (DOPA moiety 364 mg/kg ip, 6 hr) it was “− −”; in series [2] (DOPA moiety 364 mg/kg ip, 7 hr), “M —”; in series [2] (DOPA moiety 364 mg/kg ip, 8 hr) it was “M M”. Also, the “Anti-Reserpine Activity (response)” value is “−” in series [2] (setting [6]) and “−” in series [2] (DOPA moiety 637 mg/kg ip, 2 hr). For the same compound, the “toxic effects observed in treated catatonic mice” value in series [2] (ip in Miglyol, active doses) was “did not exhibit the high activity level and toxic effects”.

Regarding `CCCCCCCCCCCCCCCC(=O)OCC(CO)(COC(=O)CCCCCCCCCCCCCCC)NC(=O)CNC(=O)CC[C@H](NC(=O)c1ccc(N(C)Cc2cnc3nc(N)nc(N)c3n2)cc1)C(=O)O` [MTXGTP2, Methotrexate-γ-Gly-Tris-Dipalmitate], the “difference in tumour volume from the Vehicle group (95% level)” value in series [3] is given as “significant difference”. For the same compound, the “Mean (standard error) of B16 tumour volume adjusted for the variation in initial volume” value (“Mean (standard error)” for short) in series [3] (13/11/95, 0.5 mg) is 2.04 (0.565); in series [3] (13/11/95, 1.0 mg) it was 2.30 (0.536); in series [3] (15/11/95, 0.5 mg), 3.37 (0.884); in series [3] (15/11/95, 1.0 mg) it was 3.40 (0.839); in series [3] (16/11/95, 0.5 mg), 3.76 (1.06); in series [3] (16/11/95, 1.0 mg), 4.13 (1.01). The “Mean (standard error)” value in series [3] (17/11/95, 0.5 mg) is given as 4.03 (1.28); in series [3] (17/11/95, 1.0 mg) it was 4.89 (1.22). Also, the “B16 Tumour Volume” value in series [3] (Day 1, drug dose 0.5 mg injected at tumour region) was 0.5 mm^2 (2×) and 2.7 mm^2 and 16.6 mm^2; in series [3] (Day 1, drug dose 1.0 mg), 0.1 mm^2 and 8.2 mm^2 (2×) and 10.8 mm^2; in series [3] (Day 3, drug dose 0.5 mg), 0 mm^2 (3×) and 16.6 mm^2; in series [3] (Day 3, drug dose 1.0 mg) it was 0.1 mm^2 and 10.8 mm^2 and 0 mm^2 and 30.4 mm^2; in series [3] (Day 5, drug dose 0.5 mg), 0 mm^2 (2×) and 11.8 mm^2 and 64.5 mm^2; in series [3] (Day 5, drug dose 1.0 mg), 0.5 mm^2 and 21.8 mm^2 and 0 mm^2 and 142.5 mm^2. Besides, the “B16 Tumour Volume” value in series [3] (Day 6, drug dose 0.5 mg) was 0 mm^2 (2×) and 19.8 mm^2 and 77.6 mm^2; in series [3] (Day 6, drug dose 1.0 mg), 0.5 mm^2 and 46.8 mm^2 and 0 mm^2 and 261.8 mm^2; in series [3] (Day 7, drug dose 0.5 mg), 0 mm^2 (2×) and 26 mm^2 and 113 mm^2; in series [3] (Day 7, drug dose 1.0 mg), 14 mm^2 and 50 mm^2 and 0 mm^2 and 379 mm^2.

For the compound `CN(Cc1cnc2nc(N)nc(N)c2n1)c1ccc(C(=O)N[C@@H](CCC(=O)O)C(=O)O)cc1` [Methotrexate, reference compound], the “difference in tumour volume from the Vehicle group (95% level)” value in series [3] is “no significant difference”. Also, the “Mean (standard error)” value was 3.58 (0.610) in series [3] (13/11/95, 0.5 mg); 5.47 (0.955) in series [3] (15/11/95, 0.5 mg); 6.07 (1.15) in series [3] (16/11/95, 0.5 mg); 7.24 (1.38) in series [3] (17/11/95, 0.5 mg). The “B16 Tumour Volume” value is 0.5 mm^2 and 3.8 mm^2 and 14.1 mm^2 and 26 mm^2 in series [3] (Day 1, drug dose 0.5 mg injected at tumour region, listed as MTX); 13.6 mm^2 and 4.2 mm^2 and 30.4 mm^2 and 86 mm^2 in series [3] (Day 3, drug dose 0.5 mg, listed as MTX); 73.5 mm^2 and 14.1 mm^2 and 86.0 mm^2 and 219.4 mm^2 in series [3] (Day 5, drug dose 0.5 mg, listed as MTX); 125.1 mm^2 and 14.1 mm^2 and 215.0 mm^2 and 266.5 mm^2 in series [3] (Day 6, drug dose 0.5 mg, listed as MTX); 190 mm^2 and 21 mm^2 and 234 mm^2 and 515 mm^2 in series [3] (Day 7, drug dose 0.5 mg, listed as MTX).

Regarding `CCCCCCCCCCCCCCCC(=O)OCC(COC(=O)CCCCCCCCCCCCCCC)(COC(=O)CCCCCCCCCCCCCCC)NC(=O)CNC(=O)CCC(=O)Oc1ccc2c3c1O[C@H]1[C@@H](O)C=C[C@H]4[C@@H](C2)N(C)CC[C@@]341` [Mo-Suc-GTP3, Morphine-Suc-Gly-Tris Tripalmitate], the mean time response in series [4] (1 mg Mo/kg ip, 4 hr) came out at 23.5 s; in series [4] (1 mg Mo/kg ip, 6 hr), 27.8 s; in series [4] (10 mg Mo/kg ip, 4 hr) it was 29.8 s; in series [4] (10 mg Mo/kg ip, 6 hr), 29.0 s. Moreover, the “duration of pain-killing effect compared with morphine” value in series [4] (ip injection) is “longer lasting effect than morphine”.
